From PubChem BioAssay AID1963832 (Molecular Pharmacology Branch, DTP, NCI, 2024)
Values joined by “and” are separate entries in the source; they are usually repeats but may differ in a detail not shown here. Equal entries are not always repeated.

Tested on: 885724-159-R-J1-PDC complex spheroid viability
Assay: Anticancer human tumor 885724-159-R-J1-PDC patient-derived pancreatic adenocarcinoma cell line growth inhibition [POLQ]
Settings: for viability, T/C: stronger effect = lower value
Experimental: Multicellular complex tumor spheroid response to Polymerase (POL) inhibitors (novobiocin, ART-558, RP6685) in combination with a variety of drugs and investigational agents in selected tumor cell lines
The POL inhibitors (novobiocin, ART-558, and RP6685) were evaluated both individually and in combination with standard of care and investigational anticancer small molecules within a complex spheroid model of solid tumors. . Complex spheroids include a stromal component modeled by human endothelial cells (HUVEC) and fibroblasts modeled by human mesenchymal stem cells (MSCs). The concentration ranges selected for each drug and investigational agent were based upon clinically achievable concentrations if the clinical Cmax of the agent was known.
Compounds. The drugs and investigational agents: novobiocin (NSC847541), ART-558 (NSC835418), RP-6685 (NSC848927), peposertib (NSC802822), ceralasertib (NSC780249), elimusertib (NSC800525), camonsertib (NSC841442), AZD-1390 (NSC803789), olaparib (NSC753686), talazoparib (NSC767125), rucaparib (NSC756644), sotorasib (NSC818433), MRTX-1133 (NSC836407), SN-38 (NSC673596), topotecan (NSC609699), epotoside (NSC141540), doxorubicin (NSC123127), gemcitabine (NSC613327), 5-fluorouracil (NSC19893), paclitaxel (NSC125973), vemurafenib (NSC761431), MSA-2 (NSC828583), SN-011 (NSC837082), adavosertib (NSC754352), prexasertib (NSC758257), carboplatin (NSC241240) and oxaliplatin (NSC266046), were obtained from the National Cancer Institute (NCI) Developmental Therapeutics Program Chemical Repository (21). The FDA-approved anticancer drug set is available from the Developmental Therapeutics Program at https://dtp.cancer.gov/organization/dscb/obtaining/. […] The stock solutions were prepared in dimethyl sulfoxide (DMSO, Sigma-Aldrich, St. Louis, MO, cat. D2650), except for the platinum compounds which were prepared in saline (Quality Biological, Gaithersburg, MD, cat. 114-055-101), at 800-fold the tested concentration and stored at -70 degrees C prior to their use. All drugs and investigational agents were tested over a range starting from a high concentration at or near the clinical Cmax and decreasing in half-log increments. If the clinical Cmax for an agent had not been determined, the highest concentration tested was 10 microM, except for SN-38, which was tested at a high concentration of 1 microM.
Cell Culture. All cells were maintained in an incubator at 37 degrees C and 5% CO2 with 95% humidity. The PDC lines were cultured according to standard operating procedures established by the NCI PDMR (https://pdmr.cancer.gov). Table 3 of the manuscript, lists the cell lines along with the number of the three cell types plated to form the mct-spheroids and media for tumor cell growth. After thawing, all PDC lines, except 997537-175-T-J1-PDC and 415267-285-R-J2-PDC, were cultured in Matrigel-coated flasks prepared with a working solution of 1X Ham's F-12 nutrient mix, without supplementation (Thermo Fisher Scientific, cat. 11765054), 100 U/mL penicillin-streptomycin (Thermo Fisher Scientific, cat. 15140122), and 2.5% Matrigel (Corning Inc., Corning, NY, cat. 354248) for the first three passages. The two PDC lines 997537-175-T-J1-PDC and 415267-285-R-J2-PDC were cultured on uncoated flasks. The 857933-349-R-J2-PDC line was cultured in 6C/Colon 1B media containing advanced DMEM/F-12 (Thermo Fisher Scientific, cat. 12634028), 10 mM HEPES (Thermo Fisher Scientific, cat. 15630080), 1X GlutaMAX supplement (Thermo Fisher Scientific, cat. 35050061), 0.1 mg/mL primocin (InvivoGen, San Diego, CA, cat. ant-pm-2), 10% defined fetal bovine serum, heat inactivated (HyClone Laboratories Inc., Logan, UT, cat. SH30070.03HI), 50% L-WRN conditioned media (ATCC, cat. CRL-3276), 1.25 mM N-Acetyl-L-cysteine (Sigma-Aldrich, cat. A9165), 10 mM nicotinamide (Sigma-Aldrich, cat. N0636), 1X B-27 supplement (Thermo Fisher Scientific, cat. 17504044), 1X N-2 supplement (Thermo Fisher Scientific, cat. […]

[1] = curve of first compound, second compound 0.0316 µM
[2] = curve of first compound, second compound 0.1 µM
[3] = curve of first compound, second compound 0.316 µM
[4] = curve of first compound, second compound 1 µM
[5] = curve of first compound, second compound 3.16 µM
[6] = curve of first compound, second compound 10 µM
[7] = second compound 0.0316 µM, first compound 0.0316 µM
[8] = second compound 0.0316 µM, first compound 0.1 µM
[9] = second compound 0.1 µM, first compound 0.0316 µM
[10] = second compound 0.1 µM, first compound 0.1 µM
[11] = second compound 0.316 µM, first compound 0.0316 µM
[12] = second compound 0.316 µM, first compound 0.1 µM
[13] = second compound 1 µM, first compound 0.0316 µM
[14] = second compound 1 µM, first compound 0.1 µM
[15] = second compound 3.16 µM, first compound 0.0316 µM
[16] = second compound 3.16 µM, first compound 0.1 µM
[17] = second compound 10 µM, first compound 0.0316 µM
[18] = second compound 10 µM, first compound 0.1 µM
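Further: spheroids exposed to compounds for 7 days.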

SMILES: Cn1ncnc1[C@H]1c2n[nH]c(=O)c3cc(F)cc(c23)N[C@@H]1c1ccc(F)cc1 + Cc1cccc(N(C)C(=O)C2C(O)CCN2c2nc(C)cc(C(F)(F)F)c2C#N)c1
- IC50 [1]: > 0.1 µM
- IC50 [2]: > 0.1 µM
- IC50 [3]: > 0.1 µM
- IC50 [4]: > 0.1 µM
- IC50 [5]: > 0.1 µM
- IC50 [6]: > 0.1 µM
- viability, T/C (second compound 0.0316 µM, first compound 0.000316 µM): 97.2%
- viability, T/C (second compound 0.0316 µM, first compound 0.001 µM): 86.9%
- viability, T/C (second compound 0.0316 µM, first compound 0.00316 µM): 96.1%
- viability, T/C (second compound 0.0316 µM, first compound 0.01 µM): 86.3%
- viability, T/C [7]: 93.6%
- viability, T/C [8]: 87.5%
- viability, T/C (second compound 0.1 µM, first compound 0.000316 µM): 96.9%
- viability, T/C (second compound 0.1 µM, first compound 0.001 µM): 95%
- viability, T/C (second compound 0.1 µM, first compound 0.00316 µM): 92.9%
- viability, T/C (second compound 0.1 µM, first compound 0.01 µM): 91.7%
- viability, T/C [9]: 99.9%
- viability, T/C [10]: 87.8%
- viability, T/C (second compound 0.316 µM, first compound 0.000316 µM): 112%
- viability, T/C (second compound 0.316 µM, first compound 0.001 µM): 97.1%
- viability, T/C (second compound 0.316 µM, first compound 0.00316 µM): 93.2%
- viability, T/C (second compound 0.316 µM, first compound 0.01 µM): 93.5%
- viability, T/C [11]: 100%
- viability, T/C [12]: 86.4%
- viability, T/C (second compound 1 µM, first compound 0.000316 µM): 98.5%
- viability, T/C (second compound 1 µM, first compound 0.001 µM): 101%
- viability, T/C (second compound 1 µM, first compound 0.00316 µM): 89.2%
- viability, T/C (second compound 1 µM, first compound 0.01 µM): 84.5%
- viability, T/C [13]: 92.9%
- viability, T/C [14]: 88.5%
- viability, T/C (second compound 3.16 µM, first compound 0.000316 µM): 98.3%
- viability, T/C (second compound 3.16 µM, first compound 0.001 µM): 101%
- viability, T/C (second compound 3.16 µM, first compound 0.00316 µM): 86.4%
- viability, T/C (second compound 3.16 µM, first compound 0.01 µM): 89.6%
- viability, T/C [15]: 88.6%
- viability, T/C [16]: 84.7%
- viability, T/C (second compound 10 µM, first compound 0.000316 µM): 93.7%
- viability, T/C (second compound 10 µM, first compound 0.001 µM): 95.9%
- viability, T/C (second compound 10 µM, first compound 0.00316 µM): 98.1%
- viability, T/C (second compound 10 µM, first compound 0.01 µM): 94.4%
- viability, T/C [17]: 94.1%
- viability, T/C [18]: 80%

SMILES: O=C(c1cc(Cc2n[nH]c(=O)c3ccccc23)ccc1F)N1CCN(C(=O)C2CC2)CC1
- viability, T/C (compound 0.0316 µM): 103% and 105% (2×)
- viability, T/C (compound 0.1 µM): 97.6% and 102% and 98%
- viability, T/C (compound 0.316 µM): 97.1% and 109% and 95.8%
- viability, T/C (compound 1 µM): 94% and 107% and 93.8%
- viability, T/C (compound 3.16 µM): 93.9% and 95.7% and 87.6%
- viability, T/C (compound 10 µM): 78.1% and 78.9% and 82.2%
- IC50 (curve of compound): > 10 µM

SMILES: CCc1cc2c(N3CCc4c(cc(Cn5ccnc5)cc4-c4cn(C)nc4C(F)(F)F)C3=O)ccnc2c(OC)n1 + Cc1cccc(N(C)C(=O)C2C(O)CCN2c2nc(C)cc(C(F)(F)F)c2C#N)c1
- IC50 [1]: > 10 µM
- IC50 [2]: > 10 µM
- IC50 [3]: > 10 µM
- IC50 [4]: > 10 µM
- IC50 [5]: > 10 µM
- IC50 [6]: > 10 µM
- viability, T/C [7]: 94%
- viability, T/C [8]: 82.9%
- viability, T/C (second compound 0.0316 µM, first compound 0.316 µM): 81.8%
- viability, T/C (second compound 0.0316 µM, first compound 1 µM): 89.2%
- viability, T/C (second compound 0.0316 µM, first compound 3.16 µM): 74.3%
- viability, T/C (second compound 0.0316 µM, first compound 10 µM): 78.4%
- viability, T/C [9]: 104%
- viability, T/C [10]: 81.7%
- viability, T/C (second compound 0.1 µM, first compound 0.316 µM): 88.6%
- viability, T/C (second compound 0.1 µM, first compound 1 µM): 83.6%
- viability, T/C (second compound 0.1 µM, first compound 3.16 µM): 84.7%
- viability, T/C (second compound 0.1 µM, first compound 10 µM): 63.8%
- viability, T/C [11]: 96%
- viability, T/C [12]: 89.9%
- viability, T/C (second compound 0.316 µM, first compound 0.316 µM): 84.4%
- viability, T/C (second compound 0.316 µM, first compound 1 µM): 89.1%
- viability, T/C (second compound 0.316 µM, first compound 3.16 µM): 82.5%
- viability, T/C (second compound 0.316 µM, first compound 10 µM): 59.5%
- viability, T/C [13]: 83.8%
- viability, T/C [14]: 84.7%
- viability, T/C (second compound 1 µM, first compound 0.316 µM): 92.4%
- viability, T/C (second compound 1 µM, first compound 1 µM): 79.7%
- viability, T/C (second compound 1 µM, first compound 3.16 µM): 85.5%
- viability, T/C (second compound 1 µM, first compound 10 µM): 62.8%
- viability, T/C [15]: 94.2%
- viability, T/C [16]: 85.5%
- viability, T/C (second compound 3.16 µM, first compound 0.316 µM): 86.6%
- viability, T/C (second compound 3.16 µM, first compound 1 µM): 89.7%
- viability, T/C (second compound 3.16 µM, first compound 3.16 µM): 79.4%
- viability, T/C (second compound 3.16 µM, first compound 10 µM): 72.6%
- viability, T/C [17]: 92.8%
- viability, T/C [18]: 83.7%
- viability, T/C (second compound 10 µM, first compound 0.316 µM): 86.4%
- viability, T/C (second compound 10 µM, first compound 1 µM): 87.8%
- viability, T/C (second compound 10 µM, first compound 3.16 µM): 72.7%
- viability, T/C (second compound 10 µM, first compound 10 µM): 63.5%
